Experimental data: patent US20230320360A1, “FORMULATIONS AND METHODS FOR REGULATING AND STIMULATING PLANT GROWTH” (priority 2020, published 2023)

Test system: corn fall armyworm (FAW) (Spodoptera frugiperda)
Assay: Field trials, insecticide plus ortho silicic acid against corn fall armyworm
Type: in vivo
Design: concentration or dose not given beside the values

| Molecule | Percent Control (%) (A01 = 1 day after first spray) | Percent Control (%) (B07 = 7 days after 2nd spray) | Percent Control (%) (B10, after 2nd application) | Percent Control (%) (B21, after 2nd application) |
| --- | --- | --- | --- | --- |
| CNC(=O)c1cc(Cl)cc(C)c1NC(=O)c1cc(Br)nn1-c1ncccc1Cl [CTPR, Chlorantraniliprole] | 67.6% | 86.8% | 88.9% | 87% |
| O=C(NC(=O)c1c(F)cccc1F)Nc1ccc(OC(F)(F)C(F)OC(F)(F)F)c(Cl)c1 (stereo not drawn) [Novaluron] | 60.5% | 88.8% | 88.9% | 84.7% |
| Orthosilicic acid [OSA] | 32.4% | 58.6% | 60.6% | 59% |
